Here are results for 13 compounds from PMC6232652 (Computational and Structural Biotechnology Journal, 2018).

The subject of one series is HepG2 cells. Put plainly: MTT cytotoxicity assay, HepG2. In kind it is cell-based. The note with it: Homo sapiens, HepG2, 72 h, read-out: IC50 HepG2, MTT, 72 h, mean ± SD. On the technique in general: Tetrazolium assays rely on reduction of a dye to a coloured formazan, in cell work by metabolically active cells.
The next series relates to MCF-7 cells. The series is described as follows: MTT cytotoxicity assay, MCF-7. Type of series: cell-based. The conditions noted are these: Homo sapiens, MCF7, 72 h, read-out: IC50 MCF-7, MTT, 72 h, mean ± SD.
Series [1] relates to A549 cells. Put plainly: MTT cytotoxicity assay, A549. Type of series: cell-based. The note with it: Homo sapiens, A549, 72 h, read-out: IC50 A549, MTT, 72 h, mean ± SD.
The subject of series [2] is A549 cells. The series is described as follows: Acridine orange. In kind it is cell-based. The conditions noted are these: 12 h, 4.20 μM 14d, 5.38 μM 19b.
Series [3] relates to A549 cells. The series is described as follows: Cell cycle analysis by flow cytometry. The conditions noted are these: 12 h, 4.20 μM 14d, 5.38 μM 19b; for Freq Sub-G1: control 0.07; for Freq G2 (percentage of cells in G2/M phase): control 18.21; for Freq S: control 32.62; for Freq G1: control 48.59.
The conditions of series [4]: previous investigation; cited from earlier work.
In a further series the test system is EGFR. The conditions noted are these: read-out: IC50 (EGFR); previous investigation; cited from earlier work.

Molecules are shown by their SMILES.

By IC50 is commonly meant the concentration that inhibits the measured activity by half. `O=C(N/N=C/c1ccco1)Nc1cc2c(Nc3ccc(F)c(Cl)c3)ncnc2cc1O[C@H]1CCOC1` [10a, (S,E)-N-(4-((3-chloro-4-fluorophenyl)amino)-7-((tetrahydrofuran-3-yl)oxy)quinazolin-6-yl)-2-(furan-2-ylmethylene)hydrazine carboxamide]: the IC50 worked out at 35.2 ± 1.53 µM in the series on HepG2 cells and 33.4 ± 0.97 µM in the series with MCF-7 cells.
For the compound `Cc1ccc(/C=N/NC(=O)Nc2cc3c(Nc4ccc(F)c(Cl)c4)ncnc3cc2O[C@H]2CCOC2)o1` [10b, (S,E)-N-(4-((3-Chloro-4-fluorophenyl)amino)-7-((tetrahydrofuran-3-Yl)Oxy)quinazolin-6-Yl)-2-((5-methylfuran-2-Yl)methylene)hydrazine carboxamide], the IC50 came to 28.2 ± 1.34 µM in the series with A549 cells [1], 33.2 ± 1.46 µM with HepG2 cells and 34.8 ± 1.01 µM with MCF-7 cells.
For `Cc1ccc(/C=N/NC(=O)Nc2cc3c(Nc4ccc(F)c(Cl)c4)ncnc3cc2O[C@H]2CCOC2)s1` [10c, (S,E)-N-(4-((3-chloro-4-fluorophenyl)amino)-7-((tetrahydrofuran-3-yl)oxy)quinazolin-6-yl)-2-((5-methylthiophen-2-yl)methylene)hydrazine carboxamide], the IC50 in the series on A549 cells [1] was determined as 28.4 ± 0.56 µM; in the series with HepG2 cells, 29.2 ± 1.43 µM; in the series with MCF-7 cells, 26.1 ± 1.33 µM.
Consider `CCc1ccc(/C=N/NC(=O)Nc2cc3c(Nc4ccc(F)c(Cl)c4)ncnc3cc2O[C@H]2CCOC2)s1` [10d, (S,E)-N-(4-((3-chloro-4-fluorophenyl)amino)-7-((tetrahydrofuran-3-Yl)oxy)quinazolin-6-Yl)-2-((5-ethylthiophen-2-Yl)methylene)hydrazine carboxamide], for which the results for the IC50 in the series on A549 cells [1] and with HepG2 cells were 34.23 ± 0.31 µM and 36.2 ± 1.78 µM, respectively.
For `O=C(N/N=C/c1ccc[nH]1)Nc1cc2c(Nc3ccc(F)c(Cl)c3)ncnc2cc1O[C@H]1CCOC1` [10e, (S,E)-2-((1H-pyrrol-2-Yl)methylene)-N-(4-((3-chloro-4-fluorophenyl)amino)-7-((tetrahydrofuran-3-Yl)oxy)quinazolin-6-Yl)hydrazine carboxamide], the figures for the half-inhibitory concentration (IC50) in the series with A549 cells [1], with HepG2 cells and in the series on MCF-7 cells were 2.41 ± 0.32 µM, 0.59 ± 0.02 µM and 1.21 ± 0.19 µM, respectively.
As to `COc1cc2ncnc(Nc3ccc(F)c(Cl)c3)c2cc1NC(=O)N/N=C/c1ccco1` [11a, (E)-N-(4-((3-chloro-4-fluorophenyl)amino)-7-methoxyquinazolin-6-yl)-2-(furan-2-ylmethylene)hydrazine carboxamide], the IC50 in the series on A549 cells [1] came to 26.2 ± 1.23 µM; in the series with HepG2 cells, 29.7 ± 1.86 µM.
Regarding `COc1cc2ncnc(Nc3ccc(F)c(Cl)c3)c2cc1NC(=O)N/N=C/c1ccc(C)o1` [11b, (E)-N-(4-((3-chloro-4-fluorophenyl)amino)-7-methoxyquinazolin-6-yl)-2-((5-methylfuran-2-yl)methylene)hydrazine carboxamide], the IC50 in the series with A549 cells [1] worked out at 28.2 ± 1.34 µM; in the series on HepG2 cells it was 30.2 ± 1.16 µM; in the series with MCF-7 cells it was 35.2 ± 81 µM.
For `COc1cc2ncnc(Nc3ccc(F)c(Cl)c3)c2cc1NC(=O)N/N=C/c1ccc(C)s1` [11c, (E)-N-(4-((3-chloro-4-fluorophenyl)amino)-7-methoxyquinazolin-6-yl)-2-((5-methylthiophen-2-yl)methylene)hydrazine carboxamide], the IC50 with A549 cells [1] is 29.3 ± 0.36 µM; in the series with HepG2 cells it was 27.4 ± 1.03 µM; in the series with MCF-7 cells it was 28.1 ± 1.13 µM.
`CCc1ccc(/C=N/NC(=O)Nc2cc3c(Nc4ccc(F)c(Cl)c4)ncnc3cc2OC)s1` [11d, (E)-N-(4-((3-chloro-4-fluorophenyl)amino)-7-methoxyquinazolin-6-yl)-2-((5-ethylthiophen-2-yl)methylene)hydrazine carboxamide]: the IC50 in the series with A549 cells [1] came out at 35.3 ± 0.42 µM; in the series with HepG2 cells, 35.2 ± 1.08 µM.
For the compound `O=C(N/N=C/CN1CCCCC1)Nc1cc2c(Nc3ccc(F)c(Cl)c3)ncnc2cc1O[C@H]1CCOC1` [14d, (S,E)-N-(4-((3-chloro-4-fluorophenyl)amino)-7-((tetrahydrofuran-3-yl)oxy)quinazolin-6-yl)-2-(2-(piperidin-1-yl)ethylidene)hydrazine carboxamide], the “Morphologic changes of A549 cells (AO staining), apoptosis” value in the series on A549 cells [2] is given as “can induce A549 cell apoptosis”. In the series on A549 cells [3], the “Freq Sub-G1” value turned out to be 0.06%, the “Freq G2 (percentage of cells in G2/M phase)” value was 23.62%, the “Freq S” value is given as 48.44% and the “Freq G1” value came out at 27.08%.
Turning to `CN(C)CCn1cccc1/C=N/NC(=O)Nc1cc2c(Nc3ccc(F)c(Cl)c3)ncnc2cc1O[C@H]1CCOC1` [19b, (S,E)-N-(4-((3-chloro-4-fluorophenyl)amino)-7-((tetrahydrofuran-3-yl)oxy)quinazolin-6-yl)-2-((1-(2-(dimethylamino)ethyl)-1H-pyrrol-2-yl)methylene)hydrazine carboxamide], in the series on A549 cells [2], the “Morphologic changes of A549 cells (AO staining), apoptosis” value is listed as “can induce A549 cell apoptosis”. Besides, in the series on A549 cells [3], the “Freq Sub-G1” value is recorded as 0.05%, the “Freq G2 (percentage of cells in G2/M phase)” value was determined as 22.31%, the “Freq S” value came to 43.84% and the “Freq G1” value was found to be 33.23%.
For `CN(C)C/C=C/C(=O)Nc1cc2c(Nc3ccc(F)c(Cl)c3)ncnc2cc1O[C@H]1CCOC1` [Afatinib, reference compound], in the series on A549 cells [3], the “Freq Sub-G1” value is reported as 0.03%, the “Freq G2 (percentage of cells in G2/M phase)” value is reported as 47.45%, the “Freq S” value is recorded as 12.92% and the “Freq G1” value was 39.41%.
In the case of `O=C(N/N=C/c1ccc(O)cc1)Nc1cc2c(Nc3ccc(F)c(Cl)c3)ncnc2cc1O[C@H]1CCOC1` [BMC201725-9o, (S,E)-N-(4-((3-chloro-4-fluorophenyl)amino)-7-((tetrahydrofuran-3-yl)oxy)quinazolin-6-yl)-2-(4-hydroxybenzylidene)hydrazine carboxamide], the solubility result in series [4] is reported as “unsatisfactory solubility”. In addition, the IC50 in the series on EGFR was 56 nM.
